# In patent US20050106563A1 (Genesis Biotech Inc., priority 2003, published 2005):
# Where no end group is shown, it is not given here.
# Legend:
# [1] = tested on: IgM specific to SARS-COV N1; format: binding, human
# [2] = tested on: chicken anti-avian infectious bronchitis virus (IBV) sera; format: binding
# [3] = tested on: cat anti-feline coronavirus sera; format: binding
# [4] = tested on: anti-SARS-CoV antibody in human sera; format: binding
# anti-SARS-CoV sera IgG = format: binding, human
substance,measurement,setting,value
(RNPNNNAATV)8K4K2K-βA (also: octameric MAP: 8 copies on K4K2K lysine core with C-terminal βAla) [GA152],detection of SARS-COV antibody (IgM) in patient #51,[1],can be detected
same,cross reaction with chicken anti-IBV antiserum,[2],did not cross react
same,response ratio R/T,[3],0/8
same,"Responder (AT>1, positive)/Total samples (R/T)",[4],10/10
same,Responder/Total samples (R/T) value,[4],0
same,share of group 2 regarded as probable SARS patients (17 of 23 cases),[4],74%
same,detection of SARS-COV antibody (IgG) in patient #51,anti-SARS-CoV sera IgG,can be detected
same,time dependency of antibody binding (time dependent epitopes),anti-SARS-CoV sera IgG,immediate early (days 1-6)
